Source: patent publication US10798893B2, “Induced chromosome doubling in plants” (Dow AgroSciences LLC, priority 2009, dated 2020)
Read-outs that look alike come from different tables or passages of the source.

Assays:
[1] = system: haploid germinated maize seedlings
From the text: An exemplary cycloalkene, 1,2,3-Trimethoxy-4-(1S,6R)-6-nitro-cyclohex-3-enyl)-benzene, designated as compound 1 was used to determine double haploid efficiency, doubling rate by a coleoptile tip cutting, seedling soaking method. […] Data provided in Tables 1, 2 and 3 were generated using haploid seeds obtained through cross pollination of a maize line of interest with an inducer maize line.
The resulting maize seeds were sorted based on marker gene color.
Coleoptile tips in maize seedlings were cut and the seedlings were soaked in various chromosome doubling agents as shown in Table 1. Haploid maize seeds were germinated and the coleoptile tips were excised (1-2 mm). Seedlings that survived were transplanted and grown until tassels and silk formed. Plants that produced tassels and silk were self-pollinated. Seeds produced from the self-pollination were visually assessed for the marker to identify them as double haploid (dihaploid).

[2] = system: germinated haploid maize seedlings; assay: Foliar spray treatment of germinated haploid maize seedlings in soil at V1-V3 stage; assay type: in vivo
Protocol: Haploid maize seeds were planted in Sun Gro METRO-MIX® 306 planting mixture, which typically has a pH of 6.0 to 6.8 and an organic matter content of about 30 percent, in 72-well, plastic propagation flats (Dillen Products; Middlefield Ohio). When required to ensure good germination and healthy plants, a fungicide treatment and/or other chemical or physical treatment was applied. The plants were grown in a greenhouse with an approximate 15 hour photoperiod which was maintained at about 23-29° C. during the day and 22-28° C. during the night until they reached the V1-V3 growth stage. Nutrients and water were added on a regular basis and supplemental lighting was provided with overhead metal halide 1000-Watt lamps as necessary.
A weighed amount of compound 1, determined by the rate to be tested, was dissolved in 1.2 mL of dimethyl sulfoxide (DMSO) to obtain concentrated stock solutions. […] The concentrated stock solutions obtained were diluted with 10.8 mL of an aqueous mixture containing 1.25% v/v (volume/volume) Agri-dex Crop Oil Concentrate. Compound requirements are based upon a 12 mL application volume at a rate of 187 L/ha. Formulated compounds were applied to the plant material with an overhead Mandel track sprayer equipped with a 8002E nozzle calibrated to deliver 187 L/ha over an application area of 0.503 square meter at a spray height of 18 inches ([…]) above the average plant canopy height. Control plants were sprayed in the same manner with the solvent blank.
The treated plants and control plants were placed in a greenhouse, as described above, and watered by sub-irrigation to prevent wash-off of the test compounds. Approximately 14 days after treatment, the treated plants were transplanted to individual pots containing Sun Gro METRO-MIX® 360. Plants that produced tassels and silk were then self-pollinated to obtain dihaploid seed.
Table 3 illustrates the results of doubling rate after spray treatment with the chemicals of interest. […] The spray treated plant tassels and silks were synchronized well and the plants shed more pollen.

[3] = system: rabbit; settings: cited from earlier work
[4] = system: rats; assay: Dermal toxicity on rats; assay type: in vivo, rat; settings: 200 mg/kg
[5] = after transplanting, rate 25 μM
[6] = after transplanting, rate 125 μM
[7] = seedling soak, colchicine 0.06% w/v (rate cell empty)

SMILES: C#CC(C)(C)NC(=O)c1cc(Cl)cc(Cl)c1 [Pronamide, pronamide]
- No. plants dead after TP ([1]; after transplanting, rate 5 μM): 3
- No. plants dead after TP [1, 5]: 1
- No. plants dead after TP [1, 6]: 0
- # plants dead after treatment ([2]; spray, 35 g ai/ha): 0
- # plants dead after treatment ([2]; spray, 140 g ai/ha): 0

SMILES: COc1cc2c(c(OC)c1OC)-c1ccc(OC)c(=O)cc1[C@@H](NC(C)=O)CC2 [Colchicine, colchicine]
- Eye irritation [3]: about 1 %/3D
- No. plants dead after TP ([1]; after transplanting, colchicine 0.06% w/v (rate cell empty)): 0
- No. plants alive [1, 7]: 38
- No. plants dead [1, 7]: 27

SMILES: CC(C)OC(=O)Nc1cccc(Cl)c1 [Chlorpropham, chlorpropham]
- No. plants dead after TP ([1]; after transplanting, rate 5 μM): 0
- No. plants dead after TP [1, 5]: 0
- No. plants dead after TP [1, 6]: 0
- # plants dead after treatment ([2]; spray, 70 g ai/ha): 0
- # plants dead after treatment ([2]; spray, 280 g ai/ha): 1

SMILES: COc1ccc([C@@H]2CC=CC[C@H]2[N+](=O)[O-])c(OC)c1OC [Compound 1, 1,2,3-Trimethoxy-4-((1S,6R)-6-nitro-cyclohex-3-enyl)-benzene]
- No. plants dead after TP ([1]; maize, in vivo, 5 μM): 2
- No. plants dead after TP ([1]; maize, in vivo, 25 μM): 2
- No. plants dead after TP ([1]; maize, in vivo, 125 μM): 2
- dermal toxicity [4]: No dermal toxicity was observed
- # plants dead after treatment ([2]; maize, in vivo): 0
